Results: PMC7865522, “Analyzing Kinase Similarity in Small Molecule and Protein Structural Space to Explore the Limits of Multi-Target Screening” (Molecules, 2021)

Legend:
[1] = target: T1, BRAF (Homo sapiens, UniProt P15056); test: DiscoverX KINOMEscan competition binding assay; details: compound 10 µM; lower values = higher affinity; below 35% = significant binding
T1 construct: purchased DiscoverX (KINOMEscan service); host or cells: E. coli BL21-derived host (T7 phage) or HEK-293
Description: (§1) Ligand binding experiments for the molecules selected from Profiles 1 and 2 towards nine kinases (EGFR, ErbB2, LCK, CDK2, BRAF, MET, p38α, PI3K and VEGFR2) and for molecules selected from Profiles 3 and 4 towards four kinases (EGFR, ErbB2, BRAF and VEGFR2) were carried out by DiscoverX using the supplied protocol as described in the Supplementary Materials. Briefly, ligand affinity was measured by competition with a resin-bound standard ligand and washed-off kinase concentration was determined via qPCR.
(§2) Summarizing, binding of a compound to a kinase was tested in comparison to a control compound (see Table S2). […]
(§3) 1.1. DiscoverX kinase assay
(§4) For most assays, kinase-tagged T7 phage strains were grown in parallel in 24-well blocks in an E.coli host derived from the BL21 strain. E.coli were grown to log-phase and infected with T7 phage from a frozen stock (multiplicity of infection = 0.4) and incubated with shaking at 32°C until lysis (90-150 minutes). The lysates were centrifuged (6,000 x g) and ﬁltered (0.2µm) to remove cell debris.
(§5) The remaining kinases were produced in HEK-293 cells and subsequently tagged with DNA for qPCR detection. Streptavidin-coated magnetic beads were treated with biotinylated small molecule ligands for 30 minutes at room temperature to generate afﬁnity resins for the kinases. The liganded beads were blocked with excess biotin and washed with blocking buffer (SeaBlock [Pierce], 1% BSA, 0.05% Tween 20, 1 mM DTT) to remove unbound ligands and to reduce non-speciﬁc phage binding. Binding reactions were assembled by combining kinases, liganded afﬁnity beads, and test compounds in 1x binding buffer (20% SeaBlock, 0.17x PBS, 0.05% Tween 20, 6 mM DTT). Test compounds were prepared as 40x stocks in 100% DMSO and directly diluted into the assay. All reactions were performed in polypropylene 384-well plates in a ﬁnal volume of 0.02 ml. The assay plates were incubated at room temperature with shaking for 1 hour and the afﬁnity beads were washed with wash buffer (1x PBS, 0.05% Tween 20). The beads were then re-suspended in elution buffer (1x PBS, 0.05% Tween 20, 0.5 µM non-biotinylated afﬁnity ligand) and incubated at room temperature with shaking for 30 minutes. The kinase concentration in the eluates was measured by qPCR. […]
(§6) Table S2. Experimental % control values from the DiscoverX kinase assay. Compounds were tested against the nine kinases EGFR, ErbB2, LCK, CDK2, BRAF, MET, p38α, PI3K and VEGFR2, unless otherwise stated. Binding of kinase and compound were tested at a compound concentration of 10 µM and in comparison to a control compound. Lower values indicate a higher afﬁnity of the compound to the protein and values below 35% indicate signiﬁcant binding according to information of the CRO. […]
(§7) a Compounds were only tested against four kinases (EGFR, ErbB2, BRAF and VEGFR2). b Compound was selected independently from two docking proﬁles and tested separately during

[2] = target: T2, CDK2 (Homo sapiens, UniProt P24941); test: DiscoverX KINOMEscan competition binding assay; details: compound 10 µM; lower values = higher affinity; below 35% = significant binding
T2 construct: purchased DiscoverX (KINOMEscan service); host or cells: E. coli BL21-derived host (T7 phage) or HEK-293
Description: as §1, §2, §3, §4, §5, §6, §7

[3] = target: T3, EGFR (Homo sapiens, UniProt P00533); test: DiscoverX KINOMEscan competition binding assay; details: compound 10 µM; lower values = higher affinity; below 35% = significant binding
T3 construct: purchased DiscoverX (KINOMEscan service); host or cells: E. coli BL21-derived host (T7 phage) or HEK-293
Description: as §1, §2, §3, §4, §5, §6, §7

[4] = target: T4, ErbB2 (Homo sapiens, UniProt P04626); test: DiscoverX KINOMEscan competition binding assay; details: compound 10 µM; lower values = higher affinity; below 35% = significant binding
T4 construct: purchased DiscoverX (KINOMEscan service); host or cells: E. coli BL21-derived host (T7 phage) or HEK-293
Description: as §1, §2, §3, §4, §5, §6, §7

[5] = target: T5, LCK (Homo sapiens, UniProt P06239); test: DiscoverX KINOMEscan competition binding assay; details: compound 10 µM; lower values = higher affinity; below 35% = significant binding
T5 construct: purchased DiscoverX (KINOMEscan service); host or cells: E. coli BL21-derived host (T7 phage) or HEK-293
Description: as §1, §2, §3, §4, §5, §6, §7

[6] = target: T6, MET (Homo sapiens, UniProt P08581); test: DiscoverX KINOMEscan competition binding assay; details: compound 10 µM; lower values = higher affinity; below 35% = significant binding
T6 construct: purchased DiscoverX (KINOMEscan service); host or cells: E. coli BL21-derived host (T7 phage) or HEK-293
Description: as §1, §2, §3, §4, §5, §6, §7

[7] = target: T7, VEGFR2 (Homo sapiens, UniProt P35968); test: DiscoverX KINOMEscan competition binding assay; details: compound 10 µM; lower values = higher affinity; below 35% = significant binding
T7 construct: purchased DiscoverX (KINOMEscan service); host or cells: E. coli BL21-derived host (T7 phage) or HEK-293
Description: as §1, §2, §3, §4, §5, §6, §7

[8] = target: T8, p38α (Homo sapiens, UniProt Q16539); test: DiscoverX KINOMEscan competition binding assay; details: compound 10 µM; lower values = higher affinity; below 35% = significant binding
T8 construct: purchased DiscoverX (KINOMEscan service); host or cells: E. coli BL21-derived host (T7 phage) or HEK-293
Description: as §1, §2, §3, §4, §5, §6, §7

[9] = target: T1, BRAF; test: Eurofins in vitro kinase inhibition assay; assay type: biochemical; details: compound 20 µM; mean (SD); above 50% significant, 25-50% weak
Description: (§8) Kinase inhibition assays for EGFR, ErbB2, PI3K and BRAF were carried out by Eurofins Cerep following the protocols of Weber et al. (EGFR), Quian et al. (ErbB2), Sinnamon et al. (PI3K) and Kupcho et al. (BRAF). Briefly, except for PI3K, compounds were incubated with the respective kinase, ATP, and a substrate analog, and the effect of each compound on phosphorylation was measured. In the case of PI3K, the displacement of biotinylated PIP3 from a PIP3-binding complex by unlabelled PIP3 (produced from PIP2 by PI3K) was measured by Homogeneous Time Resolved Fluorescence (HTRF).
(§9) Finally, inhibition of the respective kinases is calculated as the percentage inhibition of control activity.
(§10) Table S3. Experimental results from the Euroﬁns assay. Inhibition of four kinases (EGFR, PI3K, ErbB2, BRAF) was measured at compound concentrations of 20 µM. Inhibition was calculated as % inhibition of control activity. According to CRO, values above 50% inhibition represent signiﬁcant inhibition, values above 25% weak inhibition effect and values below 25% as well as negative values are usually not signiﬁcant. Results are reported in mean (SD) format. […]
(§11) a Compound interfered with assay readout.

[10] = target: T3, EGFR; test: Eurofins in vitro kinase inhibition assay; assay type: biochemical; details: compound 20 µM; mean (SD); above 50% significant, 25-50% weak
Description: as §8, §9, §10, §11

[11] = target: T4, ErbB2; test: Eurofins in vitro kinase inhibition assay; assay type: biochemical; details: compound 20 µM; mean (SD); above 50% significant, 25-50% weak
Description: as §8, §9, §10, §11

[12] = target: T9, PI3K (Homo sapiens, UniProt P42336); test: Eurofins in vitro kinase inhibition assay (HTRF, PIP3 displacement); assay type: biochemical; parameters: purchased Eurofins Cerep (contract assay); details: compound 20 µM; mean (SD); above 50% significant, 25-50% weak
Description: as §8, §9, §10, §11
Target sequence in this assay (P42336 whole entry): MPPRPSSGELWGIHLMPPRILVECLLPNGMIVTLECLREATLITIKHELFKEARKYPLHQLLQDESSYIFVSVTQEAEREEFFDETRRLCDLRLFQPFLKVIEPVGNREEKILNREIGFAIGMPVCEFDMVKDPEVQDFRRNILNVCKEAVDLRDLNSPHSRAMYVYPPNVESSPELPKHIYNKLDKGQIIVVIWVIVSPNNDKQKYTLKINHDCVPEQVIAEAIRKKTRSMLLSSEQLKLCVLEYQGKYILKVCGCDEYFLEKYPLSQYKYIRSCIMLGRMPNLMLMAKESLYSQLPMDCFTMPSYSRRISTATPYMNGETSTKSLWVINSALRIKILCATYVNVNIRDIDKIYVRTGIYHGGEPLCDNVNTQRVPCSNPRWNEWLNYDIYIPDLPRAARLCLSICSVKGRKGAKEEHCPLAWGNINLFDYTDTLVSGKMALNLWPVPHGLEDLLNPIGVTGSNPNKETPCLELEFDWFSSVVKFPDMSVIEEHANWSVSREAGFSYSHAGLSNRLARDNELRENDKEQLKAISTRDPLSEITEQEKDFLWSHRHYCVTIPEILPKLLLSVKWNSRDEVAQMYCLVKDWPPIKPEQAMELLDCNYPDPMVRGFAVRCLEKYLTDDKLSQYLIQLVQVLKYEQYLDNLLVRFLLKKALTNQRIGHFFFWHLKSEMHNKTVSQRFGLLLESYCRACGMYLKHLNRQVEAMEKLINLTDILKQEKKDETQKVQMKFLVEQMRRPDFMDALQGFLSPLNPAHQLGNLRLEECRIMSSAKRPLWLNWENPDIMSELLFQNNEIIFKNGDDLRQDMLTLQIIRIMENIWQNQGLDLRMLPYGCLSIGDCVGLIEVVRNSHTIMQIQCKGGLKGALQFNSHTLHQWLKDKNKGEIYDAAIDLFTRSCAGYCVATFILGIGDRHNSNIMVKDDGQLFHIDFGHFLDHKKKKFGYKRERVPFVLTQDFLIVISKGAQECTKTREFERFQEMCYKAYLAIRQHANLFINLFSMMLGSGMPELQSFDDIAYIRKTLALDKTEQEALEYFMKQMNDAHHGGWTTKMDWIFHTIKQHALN
Target sequence in this assay (P27986 whole entry partner): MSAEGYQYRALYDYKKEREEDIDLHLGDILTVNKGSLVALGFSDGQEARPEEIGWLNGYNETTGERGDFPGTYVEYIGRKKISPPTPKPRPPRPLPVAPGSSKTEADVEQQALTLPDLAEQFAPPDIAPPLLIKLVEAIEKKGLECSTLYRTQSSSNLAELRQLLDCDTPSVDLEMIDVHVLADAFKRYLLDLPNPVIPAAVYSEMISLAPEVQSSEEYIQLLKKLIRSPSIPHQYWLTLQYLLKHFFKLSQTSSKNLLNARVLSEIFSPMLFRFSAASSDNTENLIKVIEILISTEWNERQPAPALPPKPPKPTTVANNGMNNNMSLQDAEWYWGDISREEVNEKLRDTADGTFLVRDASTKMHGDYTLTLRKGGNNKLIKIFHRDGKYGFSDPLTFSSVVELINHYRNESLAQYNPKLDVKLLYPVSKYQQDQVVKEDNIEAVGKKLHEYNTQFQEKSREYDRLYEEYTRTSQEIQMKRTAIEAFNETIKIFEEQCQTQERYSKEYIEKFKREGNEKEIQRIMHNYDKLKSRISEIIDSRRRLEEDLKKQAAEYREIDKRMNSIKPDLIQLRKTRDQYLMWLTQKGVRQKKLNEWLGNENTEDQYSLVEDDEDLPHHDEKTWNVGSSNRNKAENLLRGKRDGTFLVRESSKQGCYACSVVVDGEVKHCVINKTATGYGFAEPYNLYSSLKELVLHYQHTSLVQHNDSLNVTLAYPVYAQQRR

[13] = target: T9, PI3K; test: DiscoverX KINOMEscan competition binding assay; parameters: purchased DiscoverX (KINOMEscan service); host or cells: E. coli BL21-derived host (T7 phage) or HEK-293; details: compound 10 µM; lower values = higher affinity; below 35% = significant binding
Description: as §1, §2, §3, §4, §5, §6, §7
Target sequence in this assay (P42336 whole entry): as the sequence (P42336 whole entry) above

T1 sequence (P15056 whole entry): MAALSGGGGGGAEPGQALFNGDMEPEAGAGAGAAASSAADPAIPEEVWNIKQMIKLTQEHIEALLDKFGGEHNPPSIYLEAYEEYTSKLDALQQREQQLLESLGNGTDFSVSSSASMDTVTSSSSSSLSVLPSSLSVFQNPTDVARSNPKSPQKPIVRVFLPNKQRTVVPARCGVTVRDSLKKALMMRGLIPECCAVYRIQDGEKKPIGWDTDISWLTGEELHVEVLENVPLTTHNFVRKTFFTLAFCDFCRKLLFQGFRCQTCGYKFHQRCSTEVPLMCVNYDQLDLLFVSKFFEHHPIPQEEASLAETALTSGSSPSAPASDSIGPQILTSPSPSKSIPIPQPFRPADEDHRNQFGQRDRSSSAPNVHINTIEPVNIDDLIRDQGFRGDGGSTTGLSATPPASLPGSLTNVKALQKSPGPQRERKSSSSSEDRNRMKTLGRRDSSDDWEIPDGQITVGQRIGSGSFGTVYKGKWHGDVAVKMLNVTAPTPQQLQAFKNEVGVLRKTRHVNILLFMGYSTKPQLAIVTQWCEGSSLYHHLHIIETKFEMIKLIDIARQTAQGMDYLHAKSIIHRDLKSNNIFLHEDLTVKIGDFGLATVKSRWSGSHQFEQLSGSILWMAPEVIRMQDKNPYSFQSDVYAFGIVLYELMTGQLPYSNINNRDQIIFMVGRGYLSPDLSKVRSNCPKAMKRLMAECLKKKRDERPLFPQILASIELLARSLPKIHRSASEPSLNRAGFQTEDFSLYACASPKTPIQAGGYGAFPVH
T3 sequence (P00533 25-1210): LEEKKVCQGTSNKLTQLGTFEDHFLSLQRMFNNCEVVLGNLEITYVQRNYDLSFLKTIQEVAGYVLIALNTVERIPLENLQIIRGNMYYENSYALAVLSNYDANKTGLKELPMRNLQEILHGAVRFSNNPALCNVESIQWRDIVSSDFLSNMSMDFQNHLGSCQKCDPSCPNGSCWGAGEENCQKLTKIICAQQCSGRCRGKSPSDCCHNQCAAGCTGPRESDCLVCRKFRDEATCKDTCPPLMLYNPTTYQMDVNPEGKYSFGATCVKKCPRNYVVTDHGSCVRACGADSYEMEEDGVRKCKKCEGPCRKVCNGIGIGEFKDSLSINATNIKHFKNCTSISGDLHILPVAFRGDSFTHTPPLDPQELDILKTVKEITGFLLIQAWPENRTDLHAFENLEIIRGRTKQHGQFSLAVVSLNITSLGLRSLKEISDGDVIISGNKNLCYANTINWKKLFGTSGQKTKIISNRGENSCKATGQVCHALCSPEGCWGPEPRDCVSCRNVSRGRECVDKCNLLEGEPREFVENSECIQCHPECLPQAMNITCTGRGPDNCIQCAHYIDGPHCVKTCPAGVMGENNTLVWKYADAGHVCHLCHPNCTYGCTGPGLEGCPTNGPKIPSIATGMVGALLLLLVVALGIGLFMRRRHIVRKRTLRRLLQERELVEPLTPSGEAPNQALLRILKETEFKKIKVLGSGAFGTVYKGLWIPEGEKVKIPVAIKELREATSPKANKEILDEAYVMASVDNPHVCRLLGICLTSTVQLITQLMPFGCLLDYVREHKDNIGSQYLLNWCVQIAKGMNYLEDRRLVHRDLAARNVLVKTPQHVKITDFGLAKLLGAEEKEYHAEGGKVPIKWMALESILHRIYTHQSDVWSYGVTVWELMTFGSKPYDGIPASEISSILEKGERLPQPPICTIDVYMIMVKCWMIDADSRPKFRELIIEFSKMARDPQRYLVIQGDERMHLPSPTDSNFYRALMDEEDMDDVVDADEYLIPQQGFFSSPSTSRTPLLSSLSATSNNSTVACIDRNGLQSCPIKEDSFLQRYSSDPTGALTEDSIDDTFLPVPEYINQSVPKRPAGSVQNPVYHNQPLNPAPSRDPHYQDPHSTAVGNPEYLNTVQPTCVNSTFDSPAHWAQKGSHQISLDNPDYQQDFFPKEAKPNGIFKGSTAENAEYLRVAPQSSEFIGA
T8 sequence (Q16539 whole entry): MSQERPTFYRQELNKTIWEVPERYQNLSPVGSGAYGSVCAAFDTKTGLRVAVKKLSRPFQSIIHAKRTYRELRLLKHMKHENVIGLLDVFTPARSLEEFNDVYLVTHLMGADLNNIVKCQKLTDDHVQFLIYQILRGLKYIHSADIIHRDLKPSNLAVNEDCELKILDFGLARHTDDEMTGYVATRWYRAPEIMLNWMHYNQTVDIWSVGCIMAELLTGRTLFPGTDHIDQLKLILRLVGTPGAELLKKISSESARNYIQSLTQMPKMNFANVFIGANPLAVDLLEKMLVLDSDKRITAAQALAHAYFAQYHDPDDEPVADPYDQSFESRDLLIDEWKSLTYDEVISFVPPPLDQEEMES
T5 sequence (P06239 whole entry): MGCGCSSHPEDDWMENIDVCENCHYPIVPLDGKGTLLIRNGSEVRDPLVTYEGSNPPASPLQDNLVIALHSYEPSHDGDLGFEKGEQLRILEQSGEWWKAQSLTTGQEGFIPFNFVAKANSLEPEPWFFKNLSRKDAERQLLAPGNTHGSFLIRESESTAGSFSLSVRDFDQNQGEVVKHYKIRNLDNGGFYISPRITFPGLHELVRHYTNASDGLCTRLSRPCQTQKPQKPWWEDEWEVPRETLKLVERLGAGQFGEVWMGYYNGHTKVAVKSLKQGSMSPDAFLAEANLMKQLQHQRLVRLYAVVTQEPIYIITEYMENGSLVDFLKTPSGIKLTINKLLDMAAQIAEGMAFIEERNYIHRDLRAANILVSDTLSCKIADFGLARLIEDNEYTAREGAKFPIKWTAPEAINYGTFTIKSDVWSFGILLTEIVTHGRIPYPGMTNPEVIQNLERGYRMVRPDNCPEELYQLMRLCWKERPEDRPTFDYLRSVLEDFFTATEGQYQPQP

SMILES	% control, BRAF (DiscoverX) [1]	% control, CDK2 (DiscoverX) [2]	% control, EGFR (DiscoverX) [3]	% control, ErbB2 (DiscoverX) [4]	% control, LCK (DiscoverX) [5]	% control, MET (DiscoverX) [6]	% control, VEGFR2 (DiscoverX) [7]	% control, p38α (DiscoverX) [8]	% inhibition of control activity, BRAF (Eurofins) [9]	% inhibition of control activity, EGFR (Eurofins) [10]	% inhibition of control activity, ErbB2 (Eurofins) [11]	% inhibition of control activity, PI3K (Eurofins) [12]	% control, PI3K (DiscoverX) [13]
C[C@H](COCC(F)(F)F)NC(=O)Cc1n[nH]c(=O)c2ccccc12 [DS04644]	97 % control	99 % control	100 % control	100 % control	96 % control	100 % control	100 % control	100 % control	-14.7 (7.4) % inhibition	3.4 (1.8) % inhibition	-7.4 (1.0) % inhibition	-2.8 (0.6) % inhibition	100 % control
CN(C)S(=O)(=O)c1cccc(C2=N/C(=C\c3cccc(F)c3)C(=O)O2)c1 [DS74631]	100 % control	100 % control	97 % control	95 % control	87 % control	100 % control	100 % control	83 % control	-22.8 (15.9) % inhibition	11.3 (4.5) % inhibition	-4.6 (2.9) % inhibition	20 (5.2) % inhibition	100 % control
O=C(NCC1CC1)Nc1ccc(N2CCOC2=O)cc1 [DS75739]	100 % control	100 % control	100 % control	94 % control	100 % control	85 % control	100 % control	87 % control	-11.1 (4.9) % inhibition	4.3 (6.9) % inhibition	-0.6 (1.1) % inhibition	1.7 (0.8) % inhibition	100 % control
O=C(O)c1cncnc1NCc1nc(-c2cnccn2)n[nH]1 [DS74417]	86 % control	100 % control	89 % control	100 % control	100 % control	100 % control	100 % control	100 % control	-0.3 (1.6) % inhibition	18 (3.2) % inhibition	-2.8 (0.7) % inhibition	2.1 (0.4) % inhibition	97 % control
O=C1C[C@@H](c2noc(-c3ccc[nH]c3=O)n2)CN1Cc1ccccc1 [DS52225]	100 % control	100 % control	100 % control	94 % control	100 % control	91 % control	98 % control	100 % control	-17.7 (15.6) % inhibition	22.7 (15.5) % inhibition	4.5 (4.9) % inhibition	0.9 (3.6) % inhibition	100 % control
CC1(C)C2CC=C(COC(=O)c3cnn4cccnc34)C1C2 (centres unmarked) [DS34376]	92 % control	99 % control	90 % control	100 % control	100 % control	100 % control	100 % control	100 % control	-11.3 (4.2) % inhibition	16.1 (7.5) % inhibition	-1.6 (1.9) % inhibition	-2 (0.8) % inhibition	100 % control
CC(C)n1ccc(=O)nc1SC1CCN(c2ccccc2F)C1=O (centres unmarked) [DS99367]	100 % control	100 % control	93 % control	100 % control	100 % control	87 % control	100 % control	91 % control	-19.6 (11.8) % inhibition	17.3 (0.1) % inhibition	-3.3 (0.5) % inhibition	1.4 (0.1) % inhibition	100 % control
COCCCNC(=O)c1nc2c3c4c(sc3ncn2n1)CCC[C@H]4C [DS66846]	100 % control	100 % control	100 % control	96 % control	100 % control	92 % control	100 % control	100 % control	-18.7 (11.9) % inhibition	14.5 (8.6) % inhibition	-2.5 (1.6) % inhibition	4.6 (7.7) % inhibition	100 % control
